Assays:
[1] = test system: Aβs, including monomers, dimers, oligomers, and aggregates; experiment: Fluorescence spectral testing with Aβs; type: binding; details: probe 250 nM, Aβ 250 nM, PBS, excitation 420 nm, FIG. 2
Procedure: (§1) To record the fluorescence response of CRANAD-101 with Aβs, the following procedure was used. Step 1: 1.0 mL of PBS buffer was added to a quartz cuvette as a blank control and its fluorescence was recorded with the same parameters as for CRANAD-101. Step 2: The fluorescence emission spectrum of a CRANAD-101 solution (1.0 mL, 250 nM) was recorded with excitation at 420 nm and emission from 450 to 800 nm. Step 3: To the CRANAD-101 solution from Step 2, 10 μL Aβs (25 μM) was added (final concentration 250 nM). The emission spectra was recorded (Excitation=420 nm, Emission=450-800 nm). The final spectra from Steps 2 and 3 were corrected using the blank control from Step 1.
(§2) The emission peak of CRANAD-101 was approximately 550 nm, and its excitation peak was approximately 420 nm. To confirm whether CRANAD-101 was responsive to Aβs, including monomers, dimers, oligomers, and aggregates, PBS buffer was used as a blank, CRANAD-101 (250 nM, final concentration) was added in PBS buffer and the fluorescence intensity was recorded. Next, Aβ monomer (250 nM, final concentration) was added, and the fluorescence intensity was recorded. The same procedure was then performed for Aβ dimers, Aβ oligomers, and Aβ aggregates. The binding constant (Kd) of CRANAD-101 was also measured for Aβs.

Aβ42 dimers = biological target: T1, Aβ42 dimers (Homo sapiens, UniProt P05067); experiment: Binding constant (Kd) by fluorescence, Aβ42 dimers; details: PBS pH 7.4
T1 construct: Synthetic Aβ peptides (1-40/42) were purchased from rPeptide; purchased rPeptide (Bogart, Ga.); host or cells: synthetic peptide
T1 sequence (P05067 672-713 limits assumed): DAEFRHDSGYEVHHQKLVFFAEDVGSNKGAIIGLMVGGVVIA
Procedure: (§3) Starting materials and solvents used in the Examples were purchased from commercial vendors and used without further purification, unless otherwise noted. The pH of the PBS buffer was 7.4. Column chromatography was performed on silica gel (SiliCycle Inc., 60 Å, […]) slurry packed into glass columns. Synthetic Aβ peptides (1-40/42) were purchased from rPeptide (Bogart, Ga., 30622). Aggregates for in vitro studies were generated by the slow stirring of Aβ40 in PBS buffer for 3 days at room temperature. CRANAD-101F (Example 1) was dissolved in DMSO to prepare a 25.0 μM stock solution. ^1H and ^13C NMR spectra were recorded at […] and 125 MHz, respectively, and reported in ppm downfield from tetramethylsilane (TMS). Fluorescence measurements were performed using an F-4500 fluorescence spectrophotometer (Hitachi). […]
as §1, with “Step 3: To the CRANAD-101 solution from Step 2, 10 μL Aβs (25 μM) was added (final concentration 250 nM).” left out, “The final spectra from Steps 2 and 3 were corrected using the blank control from Step 1.” left out

[2] = Two-photon microscopic imaging of wild type mouse (BBB penetration); type: in vivo; details: WT mouse
Procedure: (§4) To investigate whether CRANAD-101 was capable of penetrating brain blood barrier (BBB), two-photon microscopic imaging was conducted using a 15-month old wild type (WT) mouse. A mouse ([…]) was anesthetized with Ketamine/xylazine (70 mg/kg) and a cranial imaging window was surgically prepared. CRANAD-101 (2.0 mg/kg in a fresh solution containing 15% CREMOPHOR EL®, 15% DMSO and 70% PBS) was injected intravenously at time=0 min by a bolus injection during image acquisition. Two-photon fluorescence excitation was performed with a 900-nm laser (Prairie Ultima). Imaging was performed using a two-photon microscope (Prairie Technologies) equipped with a 20× water immersion objective (N.A. 1.0, Zeiss). Images were collected for 15 seconds per frame 512×512 μm matrix for 45 min with a green (500-550 nm) channel.

Aβ42 oligomers = biological target: T2, Aβ42 oligomers (Homo sapiens, UniProt P05067); experiment: Binding constant (Kd) by fluorescence, Aβ42 oligomers; details: PBS pH 7.4
T2 construct: Synthetic Aβ peptides (1-40/42) were purchased from rPeptide; purchased rPeptide (Bogart, Ga.); host or cells: synthetic peptide
T2 sequence (P05067 672-713 limits assumed): as above
Procedure: as §3
as §1, with “Step 3: To the CRANAD-101 solution from Step 2, 10 μL Aβs (25 μM) was added (final concentration 250 nM).” left out, “The final spectra from Steps 2 and 3 were corrected using the blank control from Step 1.” left out

[3] = test system: Aβ plaques and cerebral amyloid angiopathy (CAA); experiment: Two-photon microscopic imaging of APP/PS1 mouse; type: in vivo; details: 15-month old APP/PS1 mouse, FIG. 5B
Procedure: as §4
The accumulation of CRANAD-101 in the brain reached a peak at 10 minutes after i.v. injection (FIG. 5C, panel f). To examine whether CRANAD-101 could label Aβ plaques and cerebral amyloid angiopathy (CAA) in vivo, a similar two-photo microscopic imaging procedure was performed with a 15-month old APP/PS1 mouse.

Aβ40 aggregates = biological target: T3, Aβ40 aggregates (Homo sapiens, UniProt P05067); experiment: Binding constant (Kd) by fluorescence, Aβ aggregates; details: PBS pH 7.4
T3 construct: Synthetic Aβ peptides (1-40/42) were purchased from rPeptide; purchased rPeptide (Bogart, Ga.); host or cells: synthetic peptide
T3 sequence (P05067 672-711 limits assumed): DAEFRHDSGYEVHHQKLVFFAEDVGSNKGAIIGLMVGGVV
Procedure: as §3
as §1, with “Step 3: To the CRANAD-101 solution from Step 2, 10 μL Aβs (25 μM) was added (final concentration 250 nM).” left out, “The final spectra from Steps 2 and 3 were corrected using the blank control from Step 1.” left out

Aβ plaques = experiment: Brain slice testing, fluorescence microscopy of APP/PS1 mouse brain slice; details: 11-month old APP/PS1 mouse slice, 25 μM, 30 minutes, FIG. 3A
Procedure: A brain slice of 11-month old APP/PS1 mouse was washed with double-distilled water for 5 minutes, then fixed with 4% formalin for 5 minutes, and washed with double-distilled water. First, a background image of a brain slice was taken using a fluorescence microscope. Next, an image was taken after the slice was incubated with CRANAD-101 (25 μM) for 30 minutes.

Aβ42 monomers = biological target: T4, Aβ42 monomers (Homo sapiens, UniProt P05067); experiment: Binding constant (Kd) by fluorescence, Aβ42 monomers; details: PBS pH 7.4
T4 construct: Synthetic Aβ peptides (1-40/42) were purchased from rPeptide; purchased rPeptide (Bogart, Ga.); host or cells: synthetic peptide
T4 sequence (P05067 672-713 limits assumed): as the sequence (P05067 672-713 limits assumed) above
Procedure: as §3
as §1, with “Step 3: To the CRANAD-101 solution from Step 2, 10 μL Aβs (25 μM) was added (final concentration 250 nM).” left out, “The final spectra from Steps 2 and 3 were corrected using the blank control from Step 1.” left out

[4] = Fluorescence spectrum of the probe; type: physicochemical
Procedure: as §1, §2

diffusible Aβ deposits = experiment: Fluorescence microscopy of AD patient brain slice; set-up: species or system human; details: FIG. 3D
Aβ = experiment: In vivo PET imaging, 14-month old APP/PS1 and WT mice; set-up: species or system mouse; details: i.v.
Procedure: In vivo PET imaging was conducted with 14-month old APP/PS1 mice (Charles River Laboratories, MA) and age-matched wild-type (WT) mice. Mice were injected via tail-vein with 100 μL of 20-30 μCi of [^18F]CRANAD-101 (Example 2) in 10% ethanol saline. MicroPET imaging experiments were performed on a Sophie Biosciences microPET G4 scanner (Culver City, Calif., USA). 60-Minute dynamic imaging was performed under general anesthesia (isoflurane/O2). Imaging analysis was conducted with Amide.
In vivo PET imaging was conducted with 14-month old APP/PS1 mice and age-matched WT mice. Mice were injected (i.v.) with 100 μL of 20-30 μCi of [^18F]CRANAD-101 in 10% ethanol saline. The specific activity was determined to be […] at the time of injection.

## Cc1nn(-c2ccc(OCCCF)cc2)cc1C=CC1=CC(C2CCC2)=[O+][B-](F)(F)O1 [CRANAD-101, (E)-4-(2-(6-cyclobutyl-2,2-difluoro-2H-1,3,2^4-dioxaborinin-4-yl)vinyl)-1-(4-(3-fluoropropoxy)phenyl)-3-methyl-1H-pyrazole]
[1]
  fluorescence response to Aβs: strong responses to Aβs
Aβ42 dimers
  Kd: 44 ± 18.9 nM
[2]; 2.0 mg/kg i.v., two-photon, FIG. 5A, 5C
  crossing of the BBB: quickly crossed the BBB
[2]; after i.v. injection 2.0 mg/kg, FIG. 5C panel f
  time of peak accumulation in the brain: 10 min
Aβ42 oligomers
  Kd: 780 ± 173 nM
[3]
  labelling of Aβ plaques and CAA in vivo: clearly highlighted Aβ plaques and CAAs
Aβ40 aggregates
  Kd: 188 ± 104 nM
Aβ plaques
  staining of Aβ plaques in brain slice: Aβ plaques could be imaged after the incubation
Aβ42 monomers
  Kd: 11.6 ± 11 nM
[4]
  emission peak: approximately 550 nm
  excitation peak: approximately 420 nm
Diffusible Aβ deposits
  staining of Aβ deposits in AD patient brain slice: can stain diffusible Aβ deposits
Aβ
  penetration of the blood-brain barrier and brain accumulation vs other reported 18F labeled curcumin analogues: much higher penetration of the blood-brain barrier (BBB) and brain accumulation

From US12102695B2, “Half-curcuminoids as amyloid-beta pet imaging agents” (The General Hospital Corporation, priority 2016, dated 2024)
